What was measured:
[1] = target: T1, catalytic domain (JH1, amino acids 826-1132) of human JAK2 (Homo sapiens, UniProt O60674); test: JAK2 LanthaScreen JH1 Binding Assay; conditions: JAK2 JH1 1.5 nM, 50 nM tracer, 2 hours at 25° C.; read-out: JH1 BIND
T1 construct: catalytic domain (JH1, amino acids 826-1132) of human JAK2; FLAG (N); biotin (biotinylated); purchased Carna Biosciences 08-445-20N; host or cells: baculovirus expression system
How it was run: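 FLAG-tagged, biotinylated JAK2 JH1 (aa 826-1132, baculovirus-expressed; 1.5 nM) incubated 2 h at 25° C with compounds, 50 nM fluorescent tracer and 0.5 nM Streptavidin-Tb in Tris pH 7.5 buffer with MgCl2, Brij-35, BSA, EGTA, glycerol, DTT. Nonspecific binding defined with 2 mM ATP; TR-FRET IC50 from four-parameter fit.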

[2] = target: T2, pseudo-kinase domain (JH2, amino-acids 536-812) of human Wild Type JAK2 (Homo sapiens, UniProt O60674, F794H/W659A/W777A); test: JAK2 LanthaScreen JH2-WT Binding Assay; conditions: JAK2 JH2-WT 0.145 nM, 50 nM tracer, 1 hour at 25° C.; read-out: JH2 BIND WT
T2 construct: pseudo-kinase domain (JH2, amino-acids 536-812 with 3 surface mutations W659A, W777A, F794H); His (C); purchased BPS Bioscience 79463; host or cells: baculovirus expression system
T2 sequence (O60674 536-812 W659A/W777A/F794H): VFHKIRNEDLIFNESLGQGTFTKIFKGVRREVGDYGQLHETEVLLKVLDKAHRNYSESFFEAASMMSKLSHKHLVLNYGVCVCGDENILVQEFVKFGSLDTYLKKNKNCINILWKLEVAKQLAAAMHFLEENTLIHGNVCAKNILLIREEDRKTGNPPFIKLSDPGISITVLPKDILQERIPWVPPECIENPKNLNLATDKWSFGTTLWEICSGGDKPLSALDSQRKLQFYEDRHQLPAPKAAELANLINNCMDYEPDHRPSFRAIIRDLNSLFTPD
How it was run: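 TR-FRET tracer displacement: 0.145 nM biotinylated JH2 protein, 50 nM fluorescent tracer, 0.25 nM streptavidin-Tb, compound dilution series; 50 mM Tris pH 7.5, 10 mM MgCl2, 5 mM DTT; 1 h, 25° C. Non-specific binding with 2 mM ATP. IC50 by 4-parameter fit.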

[3] = target: T3, pseudo-kinase domain (JH2, amino-acids 536-812) of human V617F mutant JAK2 (Homo sapiens, UniProt O60674, F794H/V617F/W659A/W777A); test: JAK2 LanthaScreen JH2-V617F Binding Assay; conditions: JAK2 JH2-V617F 0.26 nM, 50 nM tracer, 1 hour at 25° C.; read-out: JH2 BIND V617F
T3 construct: pseudo-kinase domain (JH2, amino-acids 536-812 with 3 surface mutations W659A, W777A, F794H); His (C); purchased BPS Bioscience 79498; host or cells: baculovirus expression system
T3 sequence (O60674 536-812 V617F/W659A/W777A/F794H): as the sequence (O60674 536-812 W659A/W777A/F794H) above, with V82F counted along it
How it was run: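 Competition of compounds with a fluorescent tracer (50 nM) for the biotinylated domain (0.26 nM), detected via streptavidin-Tb (0.25 nM) after 1 h at 25° C in pH 7.5 Tris buffer containing glycerol, BSA and Brij-35. ATP at 2 mM gave background. IC50 by four-parameter fit.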

[4] = target: catalytic domain (JH1, amino acids 808-1132) of human JAK2 (Homo sapiens, UniProt O60674); test: JAK2 HTRF Enzyme Activity Assay; type: biochemical; conditions: ATP 30 µM, 60 minutes at 25° C.; read-out: V617F ENZ 30 UM
catalytic domain (JH1, amino acids 808-1132) of human JAK2, sequence (O60674 808-1132 limits assumed): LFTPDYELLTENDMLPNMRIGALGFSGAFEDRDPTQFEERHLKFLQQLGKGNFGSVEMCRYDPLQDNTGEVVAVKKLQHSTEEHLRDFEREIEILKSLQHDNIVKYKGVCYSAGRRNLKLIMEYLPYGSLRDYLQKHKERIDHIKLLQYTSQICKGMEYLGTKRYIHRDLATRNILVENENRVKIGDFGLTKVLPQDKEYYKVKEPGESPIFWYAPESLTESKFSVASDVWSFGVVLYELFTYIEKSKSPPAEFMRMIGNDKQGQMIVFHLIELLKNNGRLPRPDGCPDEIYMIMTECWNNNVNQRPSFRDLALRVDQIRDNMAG

T1 sequence (O60674 826-1132): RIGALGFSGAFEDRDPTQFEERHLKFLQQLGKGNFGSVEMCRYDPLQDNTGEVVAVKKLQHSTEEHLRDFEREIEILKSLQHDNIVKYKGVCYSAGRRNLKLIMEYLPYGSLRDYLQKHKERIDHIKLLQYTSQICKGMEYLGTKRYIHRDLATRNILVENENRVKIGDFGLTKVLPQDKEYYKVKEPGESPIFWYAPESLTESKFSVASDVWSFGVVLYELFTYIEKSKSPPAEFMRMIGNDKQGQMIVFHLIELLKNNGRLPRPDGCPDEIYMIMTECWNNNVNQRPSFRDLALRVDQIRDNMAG

Row | SMILES | IC50 [1] [nM] | IC50 [2] [nM] | IC50 [3] [nM] | IC50 [4] [nM]
1 | COC(=O)Nc1cc(Nc2cc3c(cn2)n(C)c(=O)n3C2CC3(CC(NS(=O)(=O)C4CC4)C3)C2)cc(-c2cnn(C)c2)c1 (stereo not drawn) [Example 26, Methyl (3-((1-(6-(cyclopropanesulfonamido)spiro[3.3]heptan-2-yl)-3-methyl-2-oxo-2,3-dihydro-1H-imidazo[4,5-c]pyridin-6-yl)amino)-5-(1-methyl-1H-pyrazol-4-yl)phenyl)carbamate] | > 1000 | 10 to 100 | 10 to 100 | > 1000
2 | COCCOC(=O)N[C@@H]1CC[C@@H](n2c(=O)n(C)c3cnc(Nc4cc(NC(=O)OC5CCC5)cc(-c5cnn(C)c5)c4)cc32)C1 [Example 43, 2-Methoxyethyl ((1R,3R)-3-(6-((3-((cyclobutoxycarbonyl)amino)-5-(1-methyl-1H-pyrazol-4-yl)phenyl)amino)-3-methyl-2-oxo-2,3-dihydro-1H-imidazo[4,5-c]pyridin-1-yl)cyclopentyl)carbamate] | > 1000 | 10 to 100 | 10 to 100 | > 1000
3 | [2H]C([2H])([2H])n1c(=O)n([C@@H]2CC[C@@H](NC(=O)OC)C2)c2cc(Nc3ccc4cccc(C5(C)CC5)c4n3)ncc21 [Example 58, Methyl ((1R,3R)-3-(3-(methyl-d3)-6-((8-(1-methylcyclopropyl)quinolin-2-yl)amino)-2-oxo-2,3-dihydro-1H-imidazo[4,5-c]pyridin-1-yl)cyclopentyl)carbamate] | > 1000 | ≤ 10 | ≤ 10 | > 1000
4 | [2H]C([2H])([2H])n1c(=O)n([C@@H]2CC[C@@H](NC(=O)OC)C2)c2cc(Nc3ccc4cc(-c5cnn(C)c5)cc(C(F)(F)F)c4n3)ncc21 [Example 20, Methyl ((1R,3R)-3-(3-(methyl-d3)-6-((6-(1-methyl-1H-pyrazol-4-yl)-8-(trifluoromethyl)quinolin-2-yl)amino)-2-oxo-2,3-dihydro-1H-imidazo[4,5-c]pyridin-1-yl)cyclopentyl)carbamate] | > 1000 | ≤ 10 | ≤ 10 | > 1000
5 | COC(=O)Nc1cc(Nc2cc3c(cn2)n(C)c(=O)n3[C@@H]2CC[C@@H](NC(=O)OC)C2)cc(C2CCCOC2)c1 (stereo partly drawn) [Example 21, Methyl (3-((1-((1R,3R)-3-((methoxycarbonyl)amino)cyclopentyl)-3-methyl-2-oxo-2,3-dihydro-1H-imidazo[4,5-c]pyridin-6-yl)amino)-5-(tetrahydro-2H-pyran-3-yl)phenyl)carbamate] | > 1000 | ≤ 10 | ≤ 10 | > 1000
6 | [2H]C([2H])([2H])n1c(=O)n([C@@H]2CC[C@@H](NC(=O)OC)C2)c2cc(Nc3cc(C(C)(C)O)cc(-c4cnc(C(F)(F)F)s4)n3)ncc21 [Example 95, Methyl ((1R,3R)-3-(6-((4-(2-hydroxypropan-2-yl)-6-(2-(trifluoromethyl)thiazol-5-yl)pyridin-2-yl)amino)-3-(methyl-d3)-2-oxo-2,3-dihydro-1H-imidazo[4,5-c]pyridin-1-yl)cyclopentyl)carbamate] | > 1000 | ≤ 10 | ≤ 10 | > 1000
7 | COC(=O)N[C@@H]1CC[C@@H](n2c(=O)n(C)c3cnc(Nc4cccc(C(=O)N5CCCCC5)n4)cc32)C1 [Example 86, Methyl ((1R,3R)-3-(3-methyl-2-oxo-6-((6-(piperidine-1-carbonyl)pyridin-2-yl)amino)-2,3-dihydro-1H-imidazo[4,5-c]pyridin-1-yl)cyclopentyl)carbamate] | > 1000 | 10 to 100 | 100 to 500 | > 1000
8 | [2H]C([2H])([2H])n1c(=O)n([C@@H]2CC[C@@H](NC(=O)OC)C2)c2cc(Nc3ccc4c(n3)c(-c3cnn(C(F)(F)F)c3)cn4CCOC)ncc21 [Example 88, Methyl ((1R,3R)-3-(6-((1-(2-methoxyethyl)-3-(1-(trifluoromethyl)-1H-pyrazol-4-yl)-1H-pyrrolo[3,2-b]pyridin-5-yl)amino)-3-(methyl-d3)-2-oxo-2,3-dihydro-1H-imidazo[4,5-c]pyridin-1-yl)cyclopentyl)carbamate] | > 1000 | ≤ 10 | ≤ 10 | > 1000
9 | [2H]C([2H])([2H])n1c(=O)n([C@]2([2H])CC[C@@H](NC(=O)OC)C2)c2cc(Nc3cc(C(C)(C)O)cc(-c4ncc(C(F)(F)F)s4)n3)ncc21 [Example 156, Methyl ((1R,3R)-3-(6-((4-(2-hydroxypropan-2-yl)-6-(5-(trifluoromethyl)thiazol-2-yl)pyridin-2-yl)amino)-3-(methyl-d3)-2-oxo-2,3-dihydro-1H-imidazo[4,5-c]pyridin-1-yl)cyclopentyl-3-d)carbamate] | > 1000 | ≤ 10 | ≤ 10 | > 1000
10 | [2H]C([2H])([2H])n1c(=O)n([C@@H]2CC[C@@H](NC(=O)OC)C2)c2cc(Nc3cc(-c4cnccc4C(F)(F)F)cc(-c4ccc(C(F)F)s4)n3)ncc21 [Example 154, Methyl ((1R,3R)-3-(6-((6′-(5-(difluoromethyl)thiophen-2-yl)-4-(trifluoromethyl)-[3,4′-bipyridin]-2′-yl)amino)-3-(methyl-d3)-2-oxo-2,3-dihydro-1H-imidazo[4,5-c]pyridin-1-yl)cyclopentyl)carbamate] | > 1000 | ≤ 10 | ≤ 10 | > 1000
11 | COC(=O)Nc1cc(Nc2cc3c(cn2)n(C)c(=O)n3[C@H]2C[C@H](NC(=O)C3CC3)C2)cc(-c2cnn(C)c2)c1 [Example 24, Methyl (3-((1-((1r,3r)-3-(cyclopropanecarboxamido)cyclobutyl)-3-methyl-2-oxo-2,3-dihydro-1H-imidazo[4,5-c]pyridin-6-yl)amino)-5-(1-methyl-1H-pyrazol-4-yl)phenyl)carbamate] | > 1000 | 10 to 100 | 10 to 100 | > 1000
12 | [2H]C([2H])([2H])n1c(=O)n([C@@H]2CC[C@@H](NC(=O)OC)C2)c2cc(Nc3cc(C(=O)N4CCOCC4)cc(-c4ccc(C(F)F)s4)n3)ncc21 [Example 104, Methyl ((1R,3R)-3-(6-((6-(5-(difluoromethyl)thiophen-2-yl)-4-(morpholine-4-carbonyl)pyridin-2-yl)amino)-3-(methyl-d3)-2-oxo-2,3-dihydro-1H-imidazo[4,5-c]pyridin-1-yl)cyclopentyl)carbamate] | > 1000 | ≤ 10 | ≤ 10 | 500 to 1000
13 | [2H]C([2H])([2H])n1c(=O)n([C@@H]2CC[C@@H](NC(=O)OC)C2)c2cc(Nc3cc(C(=O)N4CCCC(F)(F)C4)c4cccc(C(F)(F)F)c4n3)ncc21 [Example 16, Methyl ((1R,3R)-3-(6-((4-(3,3-difluoropiperidine-1-carbonyl)-8-(trifluoromethyl)quinolin-2-yl)amino)-3-(methyl-d3)-2-oxo-2,3-dihydro-1H-imidazo[4,5-c]pyridin-1-yl)cyclopentyl)carbamate] | > 1000 | ≤ 10 | ≤ 10 | > 1000
14 | COC(=O)N[C@@H]1CC[C@@H](n2c(=O)n(C)c3cnc(Nc4ccn5nc(-c6cnn(C)c6)cc5n4)cc32)C1 [Example 35, Methyl ((1R,3R)-3-(3-methyl-6-((2-(1-methyl-1H-pyrazol-4-yl)pyrazolo[1,5-a]pyrimidin-5-yl)amino)-2-oxo-2,3-dihydro-1H-imidazo[4,5-c]pyridin-1-yl)cyclopentyl)carbamate] | > 1000 | 10 to 100 | 10 to 100 | > 1000
15 | [2H]C([2H])([2H])n1c(=O)n([C@@H]2CC[C@@H](NC(=O)OC)C2)c2cc(Nc3ccc4c(n3)c(-c3cnn(C(F)(F)F)c3)nn4CC(C)(C)O)ncc21 [Example 118, Methyl ((1R,3R)-3-(6-((1-(2-hydroxy-2-methylpropyl)-3-(1-(trifluoromethyl)-1H-pyrazol-4-yl)-1H-pyrazolo[4,3-b]pyridin-5-yl)amino)-3-(methyl-d3)-2-oxo-2,3-dihydro-1H-imidazo[4,5-c]pyridin-1-yl)cyclopentyl)carbamate] | > 1000 | ≤ 10 | ≤ 10 | > 1000

— patent US20240317744A1, “Bicyclic Ureas As Kinase Inhibitors” (Incyte Corporation, priority 2023, published 2024)
